In patent US7635702B2, “Imidazole compounds as transforming growth factor (TGF) inhibitors” (Pfizer Inc., priority 2002, dated 2009):
pIC50: −log10 of the molar value.

Target: T1, ALK-5 (TβRI) (Homo sapiens, UniProt P36897)
T1 construct: using either the kinase domain of ALK5 with Smad3 as substrate; GST
T1 sequence (P36897 205-495 limits assumed): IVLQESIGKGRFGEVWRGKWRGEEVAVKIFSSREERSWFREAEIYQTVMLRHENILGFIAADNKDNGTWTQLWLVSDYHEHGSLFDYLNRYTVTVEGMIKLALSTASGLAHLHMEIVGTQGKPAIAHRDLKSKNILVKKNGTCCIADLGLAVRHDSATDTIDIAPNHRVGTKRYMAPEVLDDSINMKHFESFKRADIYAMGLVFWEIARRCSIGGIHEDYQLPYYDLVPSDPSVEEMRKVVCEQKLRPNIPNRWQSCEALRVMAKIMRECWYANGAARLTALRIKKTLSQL
Assay: ALK-5 (TβRI) kinase assay
Format: biochemical
Conditions: GST-ALK5 with GST-Smad3 substrate, 33P-ATP
Method: The kinase assays were performed with 65 nM GST-ALK5 and 84 nM GST-Smad3 in 50 mM HEPES, 5 mM MgCl2, 1 mM CaCl2, 1 mM dithiothreitol, and 3_M ATP. Reactions were incubated with 0.5_Ci of [33 P]_ATP for 3 h at 30° C. Phosphorylated protein was captured on P-81 paper (Whatman, Maidstone, England), washed with 0.5% phosphoric acid, and counted by liquid scintillation. Alternatively, Smad3 or Smad1 protein was also coated onto FlashPlate Sterile Basic Microplates (PerkinElmer Life Sciences, Boston, Mass.). Kinase assays were then performed in Flash-Plates with same assay conditions using either the kinase domain of ALK5 with Smad3 as substrate or the kinase domain of ALK6 (BMP receptor) with Smad1 as substrate. Plates were washed three times with phosphate buffer and counted by TopCount (Packard Bio-science, Meriden, Conn.). (Laping, N.J. et al. Molecular Pharmacology 62:58-64 (2002)).

Question: With Cc1cccc(-c2[nH]cnc2-c2ccc3nnn(C)c3c2)n1 [Example 12, 1-Methyl-6-[5-(6-methyl-pyridin-2-yl)-1H-imidazol-4-yl]-1H-benzotriazole] as the molecule, how does the pIC50 read?
Answer: ~7.35
